{
  "source": "patent US10125135B2",
  "about": "“Chemical compounds” (AstraZeneca AB, priority 2016, dated 2018)",
  "data": [
    {"molecular_target": "ERα receptor in MCF-7 human ductal carcinoma breast cell line (Homo sapiens (Human), UniProt P03372)", "sequence (P03372 whole entry)": "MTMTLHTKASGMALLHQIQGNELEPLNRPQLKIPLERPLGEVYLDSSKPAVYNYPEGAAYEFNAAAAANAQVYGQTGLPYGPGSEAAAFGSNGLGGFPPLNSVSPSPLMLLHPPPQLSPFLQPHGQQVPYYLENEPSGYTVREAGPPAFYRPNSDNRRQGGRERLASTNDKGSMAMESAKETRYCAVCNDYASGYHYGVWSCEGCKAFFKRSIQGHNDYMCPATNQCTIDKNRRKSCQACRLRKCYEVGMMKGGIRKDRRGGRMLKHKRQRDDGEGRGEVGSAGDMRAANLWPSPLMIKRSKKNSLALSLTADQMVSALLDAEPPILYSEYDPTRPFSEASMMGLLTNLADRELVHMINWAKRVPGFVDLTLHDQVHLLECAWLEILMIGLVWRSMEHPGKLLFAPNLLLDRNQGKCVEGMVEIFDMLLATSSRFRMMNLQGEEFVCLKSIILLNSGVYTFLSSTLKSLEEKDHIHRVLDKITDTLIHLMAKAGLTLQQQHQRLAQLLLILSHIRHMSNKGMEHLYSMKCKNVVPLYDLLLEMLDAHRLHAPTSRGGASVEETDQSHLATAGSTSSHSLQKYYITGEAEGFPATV", "assay": "MCF-7 ER down regulation assay (immuno-fluorescence)", "type": "cell-based", "conditions": "MCF-7 cells, 18-22 hours incubation; read-out: ER down regulation IC50 value", "experimental": "(§1) MCF-7 ER Down Regulation Assay\n(§2) The ability of compounds to down-regulate Estrogen Receptor (ER) numbers was assessed in a cell based immuno-fluorescence assay using the MCF-7 human ductal carcinoma breast cell line. MCF-7 cells were revived directly from a cryovial (approx 5×10^6 cells) in Assay Medium (phenol red free Dulbecco's Modified Eagle's medium (DMEM) (Sigma D5921) containing 2mM L-Glutamine and 5% (v/v) Charcoal/Dextran treated foetal calf serum. Cells were syringed once using a sterile 18 G×1.5 inch (1.2×40 mm) broad gauge needle and cell density was measured using a Coulter Counter (Beckman). Cells were further diluted in Assay Medium to a density of 3.75×10^4 cells per mL and 40 μL per well added to transparent bottomed, black, tissue culture treated 384 well plates (Costar, No. 3712) using a Thermo Scientific Matrix WellMate or Thermo Multidrop. Following cell seeding, plates were incubated overnight at 37° C., 5% CO2 (Liconic carousel incubator). Test data was generated using the LabCyte Echo™ model 555 compound reformatter which is part of an automated workcell (Integrated Echo 2 workcell). 10 mM compound stock solutions of the test compounds were used to generate a 384 well compound dosing plate (Labcyte P-05525-CV1). […] 40 μΛ of DMSO added to wells in row P on the source plate allow for DMSO normalisation across the dose range. To dose the control wells 40 μL of DMSO was added to row O1 and 40 μL of 100 μM fulvestrant in DMSO was added to row O3 on the compound source plate. […] Compounds were dispensed onto the cell plates with a compound source plate prepared as above producing a 12 pt duplicate 3 μM to 3 pM dose range with 3 fold dilutions and one final 10 fold dilution using the Integrated Echo 2 workcell. […] Cells were fixed at room temperature for 20 mins before being washed two times with 250 μL PBS/Proclin (PBS with a Biocide preservative) using a BioTek platewasher, 40 μL of PBS/Proclin was then added to all wells and the plates stored at 4° C. The fixing method described above was carried out on the Integrated Echo 2 workcell. Immunostaining was performed using an automated AutoElisa workcell. The PBS/Proclin was aspirated from all wells and the cells permeabilised with 40 μL PBS containing 0.5% Tween™ 20 (v/v) for 1 hour at room temperature. The plates were washed three times in 250 μL of PBS/0.05% (v/v) Tween 20 with Proclin (PBST with a Biocide preservative) and then 20 μL of ERα (SP1) Rabbit monoclonal antibody (Thermofisher) 1:1000 in PBS/Tween™/3% (w/v) Bovine Serum Albumin was added. The plates were incubated overnight at 4° C. (Liconic carousel incubator) and then washed three times in 250 μL of PBS/0.05% (v/v) Tween™ 20 with Proclin (PBST). The plates were then incubated with 20 μL/well of a goat anti-rabbit IgG AlexaFluor 594 or goat anti-rabbit AlexaFluor 488 antibody (Molecular Probes) with Hoechst at 1:5000 in PBS/Tween™/3% (w/v) Bovine Serum Albumin for lhour at room temperature. The plates were then washed three times in 250 μL of PBS/0.05% (v/v) Tween™ 20 with Proclin (PBST with a Biocide preservative). 20 μL of PBS was added to each well and the plates covered with a black plate seal and stored at 4° C. before being read. Plates were read using a Cellomics Arrayscan reading the 594 nm (24 hr time point) or 488 nm (5 hr timepoint) fluorescence to measure the ERα receptor level in each well. The mean total intensity was normalized for cell number giving the total intensity per cell.", "units": {"DC50": "nM"}, "values": [
      {"smiles": "COCC(C)(F)CN1[C@H](c2ccc(OCCN3CC(CF)C3)cc2OC)c2ccc3[nH]ncc3c2C[C@H]1C", "note": "(single isomer, unassigned) [Example 16]", "DC50": 0.44},
      {"smiles": "COCC(C)(F)CN1[C@H](c2ccc(OCCN3CC(CF)C3)cc2OC)c2ccc3[nH]ncc3c2C[C@H]1C", "note": "(single isomer, unassigned) [Example 17]", "DC50": 0.24},
      {"smiles": "COc1cc(OCCN2CC(CF)C2)ccc1[C@@H]1c2ccc3[nH]ncc3c2C[C@@H](C)N1CC(C)(F)CF", "note": "(single isomer, unassigned) [Example 20]", "DC50": 0.13},
      {"smiles": "COc1cc(OCCN2CC(CF)C2)ccc1[C@@H]1c2ccc3[nH]ncc3c2C[C@@H](C)N1CC(C)(F)CF", "note": "(single isomer, unassigned) [Example 21]", "DC50": 0.13},
      {"smiles": "C[C@@H]1Cc2c(ccc3[nH]ncc23)[C@@H](c2c(F)cc(OCCN3CC(CF)C3)cc2F)N1CC(F)CF", "note": "(single isomer, unassigned) [Example 34]", "DC50": 0.28},
      {"smiles": "C[C@@H]1Cc2c(ccc3[nH]ncc23)[C@@H](c2c(F)cc(OCCN3CC(CF)C3)cc2F)N1CC(F)CF", "note": "(single isomer, unassigned) [Example 35]", "DC50": 0.26},
      {"smiles": "COc1cc(OCCN2CC(CF)C2)ccc1[C@@H]1c2ccc3[nH]ncc3c2C[C@@H](C)N1CC(C)(F)F", "note": "[Example 11, (6S,8R)-7-(2,2-difluoropropyl)-6-(4-(2-(3-(fluoromethyl)azetidin-1-yl)ethoxy)-2-methoxyphenyl)-8-methyl-6,7,8,9-tetrahydro-3H-pyrazolo[4,3-f]isoquinoline]", "DC50": 0.036},
      {"smiles": "COc1cc(OCCN2CC(CF)C2)ccc1[C@@H]1c2ccc3[nH]ncc3c2C[C@@H](C)N1CC(F)(F)F", "note": "[Example 12, (6S,8R)-6-(4-(2-(3-(fluoromethyl)azetidin-1-yl)ethoxy)-2-methoxyphenyl)-8-methyl-7-(2,2,2-trifluoroethyl)-6,7,8,9-tetrahydro-3H-pyrazolo[4,3-f]isoquinoline]", "DC50": 0.051},
      {"smiles": "COc1cc(OCCN2CC(CF)C2)ccc1[C@@H]1c2ccc3[nH]ncc3c2C[C@@H](C)N1CC1(F)COC1", "note": "[Example 13, (6S,8R)-6-(4-(2-(3-(fluoromethyl)azetidin-1-yl)ethoxy)-2-methoxyphenyl)-7-((3-fluorooxetan-3-yl)methyl)-8-methyl-6,7,8,9-tetrahydro-3H-pyrazolo[4,3-f]isoquinoline]", "DC50": 0.23},
      {"smiles": "COc1cc(OCCN2CC(CF)C2)ccc1[C@@H]1c2ccc3[nH]ncc3c2C[C@@H](C)N1CC(F)(F)CO", "note": "[Example 14, 2,2-difluoro-3-((6S,8R)-6-(4-(2-(3-(fluoromethyl)azetidin-1-yl)ethoxy)-2-methoxyphenyl)-8-methyl-3,6,8,9-tetrahydro-7H-pyrazolo[4,3-f]isoquinolin-7-yl)propan-1-ol]", "DC50": 0.15},
      {"smiles": "COCC(F)(F)CN1[C@H](c2ccc(OCCN3CC(CF)C3)cc2OC)c2ccc3[nH]ncc3c2C[C@H]1C", "note": "[Example 15, (6S,8R)-7-(2,2-difluoro-3-methoxypropyl)-6-(4-(2-(3-(fluoromethyl)azetidin-1-yl)ethoxy)-2-methoxyphenyl)-8-methyl-6,7,8,9-tetrahydro-3H-pyrazolo[4,3-f]isoquinoline]", "DC50": 0.091},
      {"smiles": "COc1cc(OCCN2CC(CF)C2)ccc1[C@@H]1c2ccc3[nH]ncc3c2C[C@@H](C)N1CC(F)(F)CF", "note": "[Example 22, (6S,8R)-6-(4-(2-(3-(fluoromethyl)azetidin-1-yl)ethoxy)-2-methoxyphenyl)-8-methyl-7-(2,2,3-trifluoropropyl)-6,7,8,9-tetrahydro-3H-pyrazolo[4,3-f]isoquinoline]", "DC50": 0.15},
      {"smiles": "COc1cc(OCCN2CC(C)C2)ccc1[C@@H]1c2ccc3[nH]ncc3c2C[C@@H](C)N1CC(C)(C)F", "note": "[Example 23, (6S,8R)-7-(2-fluoro-2-methylpropyl)-6-(2-methoxy-4-(2-(3-methylazetidin-1-yl)ethoxy)phenyl)-8-methyl-6,7,8,9-tetrahydro-3H-pyrazolo[4,3-f]isoquinoline]", "DC50": 0.24}
    ]},
    {"molecular_target": "ERα receptor in MCF-7 human ductal carcinoma breast cell line (Homo sapiens (Human), UniProt P03372)", "assay": "MCF-7 ER down regulation assay (immuno-fluorescence)", "type": "cell-based", "conditions": "MCF-7 cells; >90% unless otherwise stated", "experimental": "as §1, §2", "units": {"% downregulation (in brackets) in ER down regulation assay": "%"}, "values": [
      {"smiles": "COCC(C)(F)CN1[C@H](c2ccc(OCCN3CC(CF)C3)cc2OC)c2ccc3[nH]ncc3c2C[C@H]1C", "note": "(single isomer, unassigned) [Example 16]", "% downregulation (in brackets) in ER down regulation assay": 56},
      {"smiles": "COc1cc(OCCN2CC(C)C2)ccc1[C@@H]1c2ccc3[nH]ncc3c2C[C@@H](C)N1CC(C)(C)F", "note": "[Example 23, (6S,8R)-7-(2-fluoro-2-methylpropyl)-6-(2-methoxy-4-(2-(3-methylazetidin-1-yl)ethoxy)phenyl)-8-methyl-6,7,8,9-tetrahydro-3H-pyrazolo[4,3-f]isoquinoline]", "% downregulation (in brackets) in ER down regulation assay": 67}
    ]}
  ]
}
